Literature values as cited in patent US10695437B2, “Polycomplexes of poly-lysine compounds for preventing and/or combatting amyotrophic lateral sclerosis” (GEMAC, priority 2016, dated 2020).

Test system: ALS
Conditions: ALS patients

Compound: Nc1nc2ccc(OC(F)(F)F)cc2s1 [Riluzole]
- Side effects: numerous side effects (liver toxicity)
